Some results are limits rather than exact numbers.

The term AUC denotes concentration integrated over time. The low end stands for low exposure, the high end for high exposure. By AUC(0-inf) is commonly meant the area under the concentration-time curve extrapolated to infinity. One may read the AUC(0-t) as exposure summed from dosing to a finite time, without extrapolation to infinity. Higher therefore signals more exposure. As usually defined, the Cmax is the highest concentration seen after dosing. The term Tmax denotes the time at which the peak concentration occurs. A word on the half-life: it is the time needed for the level to fall by half in the phase considered. Read a high half-life as slow decline.

Data set [1] deals with Burkholderia pseudomallei K96243. It counts as in vivo, BALB/c mice. Particulars: for survival at 30 days post-infection: n = 5.
Data set [2] shares this test system. On the set-up: species or system Galleria mellonella. Particulars: for larvae whose haemolymph was sterile of any bacteria / survival of Galleria larvae: in vivo.
Data set [3] deals with gyrase and topoisomerase IV. The following applies: cited from earlier work.
The conditions of data set [4]: not told; cited from earlier work.
The subject of data set [5] is B. pseudomallei. Description: microbe, parasite or virus in culture. The format is cell-based. Particulars: Burkholderia pseudomallei, read-out: minimum inhibitory concentration (MIC).
For data set [6] the following is noted: in vivo.
A short description of a further data set: in vivo. Particulars: female, BALB/c, mouse, ip, 15 mg/kg.
Data set [7] has as its system B. pseudomallei. The following applies: ip; cited from earlier work.

Consider `CC(C)(O/N=C(\C(=O)N[C@@H]1C(=O)N2C(C(=O)[O-])=C(C[n+]3ccccc3)CS[C@H]12)c1csc(N)n1)C(=O)O` [ceftazidime], for which, in data set [1] (mouse, in vivo), the “B. pseudomallei present in lungs of surviving mice” value is “two of three” and the “bacteria in spleen of surviving mice” value was > 1 × 10^7 CFU. Also, in data set [1], the “survival at 30 days post-infection” value is 60%.
With `CO[C@@H]1[C@@H](OC(=O)c2ccc(C)[nH]2)[C@@H](O)[C@H](Oc2ccc3c(O)c(NC(=O)c4ccc(O)c(CC=C(C)C)c4)c(=O)oc3c2Cl)OC1(C)C` [clorobiocin], in data set [2], the “bacterial load in haemolymph (killing activity in vivo)” value (“bacterial load in haemolymph” below) was “significantly reduced the bacterial load”, the “larvae whose haemolymph was sterile of any bacteria” value came to 100% and the “survival of Galleria larvae” value is “all Galleria larvae survived”. Besides, the “potency as inhibitor of gyrase and topoisomerase IV relative to novobiocin” value in data set [3] was “more potent inhibitor”. Moreover, the “membrane permeability compared with novobiocin” value in data set [4] is recorded as “improved membrane permeability”.
Take `CO[C@@H]1[C@@H](OC(N)=O)[C@@H](O)[C@H](Oc2ccc3c(O)c(NC(=O)c4ccc(O)c(CC=C(C)C)c4)c(=O)oc3c2C)OC1(C)C` [novobiocin]: the MIC in the data set with B. pseudomallei [5] was below 10 µg/mL. Further, in data set [2], the “bacterial load in haemolymph” value is given as “no significant killing activity” and the “survival of Galleria larvae” value is “no larvae treated with novobiocin survived longer than 24 h post-infection”. The “effect of DL-tryptophan on drug accumulation in tissue” value in data set [6] is given as “No significant effect on drug accumulation in adipose or haemolymphatic tissue”. In the data set “in vivo”, this compound showed an AUC of 33.2 µM·h, an AUC(0-inf) of 33.2 µM·h, an AUC(0-t) of 33.2 µM·h and a Cmax of 10.7 µM. For the same compound, the Tmax in “in vivo” is 1 h. In the data set “in vivo” (t1/2), this compound had a half-life of 2.8 h.
For coumermycin, in data set [2], the “bacterial load in haemolymph” value is “significantly reduced the bacterial load”, the “larvae whose haemolymph was sterile of any bacteria” value is listed as 60% and the “survival of Galleria larvae” value was “all Galleria larvae survived”. In addition, the “units with complete organ sterility” value in data set [1] (mouse, in vivo) came to 40%. Further, the “survival at 30 days post-infection” value in data set [1] is on record as 40%. Besides, the “activity against multiple strains of B. pseudomallei in vivo” value in the data set on B. pseudomallei [7] is reported as “significant activity”.

(Values after publication PMC7385433 (International Journal of Antimicrobial Agents, 2020).)
